# Measured values taken from EP2144607B1, “COMPOSITIONS FOR CONTRIBUTING TO THE TREATMENT OF CANCERS” (Spectrum Pharmaceuticals, Inc., priority 2007, dated 2008).
# Tested on: SK-OV3 cells
# Test: preclinical efficacy study on the human ovarian tumor model in mice (tumor volume)
# Format: in vivo
# Settings: via tail vein once every three days, 4 doses, measured every third day through the 22nd day
# Procedure: A preclinical efficacy study was conducted on the human ovarian tumor model in mice. The tumor cells used were SK-OV3 cells purchased from ATCC. The mice were 4-6 week old Athymic (nu+/nu+) female mice. The IRL-1620 was intravenously-infused slowly (over 30 seconds).
# A solid tumor was induced in each animal using 3 million viable SK-OV3 cells suspended in 200 µl of PBS per animal. After 10 days, when established tumors of 100 mm^3 in diameter were detectable, the mice randomly were divided into six groups of 6 animals per group with each group receiving different treatments. The treatment regimens were administered via the tail vein every third day for a total of 4 doses. […]
# The effect of these treatments on the tumor size was measured using a digital caliper for a total of 12 days after drug administration. The mice were monitored and weighed on every third day. […] Progression, stasis, partial regression or complete regression of tumor growth were measured by tumor load measurements with calipers and was calculated using the following formula: (3.14/6) x larger diameter x smaller diameter.
SMILES,"tumor volume (Figure 1, cisplatin 2.5 mg/kg with saline or IRL-1620 3 nmol/kg)","tumor volume (Figure 3, cyclophosphamide 75 mg/kg with saline or IRL-1620 3 nmol/kg)"
"N.N.[Cl][Pt][Cl] [saline/cisplatin, cisplatin]",significant reduction in tumor volume,
"O=P1(N(CCCl)CCCl)NCCCO1 (centres unmarked) [saline/cyclophosphamide, cyclophosphamide]",,significant reduction in tumor volume
